± gives the expanded uncertainty stated by the source.
What was measured:
[1] = 101.33 kPa, Liquid; for viscosity: Cone and plate viscometry; for mass density: Vibrating tube method; for electrical conductivity: conductivity meter (DDJS-308A)
[2] = refractive index (Na D-line) (dimensionless); conditions: 101.33 kPa, Liquid, Standard Abbe refractometry

C[N+](C)(C)CCO.O=C([O-])[C@@H]1CCCN1 [2-hydroxy-N,N,N-trimethylethanaminium L-prolinate]
Conditions | electrical conductivity, [1] [S/m] | mass density, [1] [kg/m3] | refractive index, [2] | viscosity, [1] [mPa·s]
293.15 K | – | – | 1.5419 ± 0.0011 | –
298.15 K | 3e-05 ± 1e-05 | 1121.04 ± 2 | 1.5408 ± 0.0011 | 10644 ± 1600
303.15 K | 0.00013 ± 1e-05 | 1118.21 ± 2 | 1.5402 ± 0.0011 | 5437.3 ± 770
308.15 K | 0.00035 ± 1e-05 | 1115.35 ± 2 | 1.539 ± 0.0011 | 2824.6 ± 380
313.15 K | 0.0007 ± 2e-05 | 1112.49 ± 2 | 1.5379 ± 0.0011 | 1515.3 ± 190
318.15 K | 0.0013 ± 4e-05 | 1109.61 ± 2 | 1.5367 ± 0.0011 | 839.1 ± 100
323.15 K | 0.00204 ± 6e-05 | 1106.69 ± 2 | 1.5355 ± 0.0011 | 463.5 ± 55
328.15 K | 0.00291 ± 9e-05 | – | 1.5344 ± 0.0011 | 307 ± 36
333.15 K | 0.00435 ± 0.00013 | 1100.61 ± 2 | 1.5329 ± 0.0011 | 163.7 ± 18
338.15 K | 0.00552 ± 0.00017 | 1097.81 ± 2 | 1.5317 ± 0.0011 | 114 ± 13
343.15 K | 0.00649 ± 0.00019 | 1095.03 ± 2 | 1.5306 ± 0.0011 | 70.1 ± 7.8
348.15 K | 0.00779 ± 0.00023 | 1092.12 ± 2 | – | 46.3 ± 5.1
353.15 K | 0.00941 ± 0.00028 | 1089.39 ± 2 | – | 33.7 ± 3.7

C[C@H](N)C(=O)[O-].C[N+](C)(C)CCO [2-hydroxy-N,N,N-trimethylethanaminium L-alaninate]
Conditions | electrical conductivity, [1] [S/m] | mass density, [1] [kg/m3] | refractive index, [2] | viscosity, [1] [mPa·s]
293.15 K | – | – | 1.5146 ± 0.0011 | –
298.15 K | 0.00213 ± 7e-05 | 1112.94 ± 2 | 1.514 ± 0.0011 | 385.6 ± 45
303.15 K | 0.00577 ± 0.00018 | 1110.07 ± 2 | 1.5127 ± 0.0011 | 234.9 ± 27
308.15 K | 0.00907 ± 0.00027 | 1107.01 ± 2 | 1.5118 ± 0.0011 | 136.8 ± 15
313.15 K | 0.0126 ± 0.00038 | 1104.04 ± 2 | 1.5105 ± 0.0011 | 89 ± 9.9
318.15 K | 0.017 ± 0.00051 | 1101.21 ± 2 | 1.5094 ± 0.0011 | 51.8 ± 5.7
323.15 K | 0.0249 ± 0.00075 | 1098.37 ± 2 | 1.5084 ± 0.0011 | 31.5 ± 3.5
328.15 K | 0.0309 ± 0.00093 | 1095.54 ± 2 | 1.5072 ± 0.0011 | 21.5 ± 2.4
333.15 K | 0.0397 ± 0.0012 | 1092.69 ± 2 | 1.506 ± 0.0011 | 14 ± 1.5
338.15 K | 0.0518 ± 0.0016 | 1089.85 ± 2 | 1.5052 ± 0.0011 | 10 ± 1.1
343.15 K | 0.0655 ± 0.002 | 1087.04 ± 2 | 1.5041 ± 0.0011 | 7.4 ± 0.8
348.15 K | 0.0822 ± 0.0025 | 1084.27 ± 2 | – | 5.7 ± 0.6
353.15 K | 0.101 ± 0.003 | 1081.51 ± 2 | – | 4.4 ± 0.5

C[N+](C)(C)CCO.NCC(=O)[O-] [2-hydroxy-N,N,N-trimethylethanaminium glycinate]
Conditions | electrical conductivity, [1] [S/m] | mass density, [1] [kg/m3] | refractive index, [2] | viscosity, [1] [mPa·s]
293.15 K | – | – | 1.5238 ± 0.0011 | –
298.15 K | 0.00677 ± 0.00021 | 1145.2 ± 2 | 1.5224 ± 0.0011 | 182.3 ± 21
303.15 K | 0.0104 ± 0.00031 | 1142.31 ± 2 | 1.5213 ± 0.0011 | 119.9 ± 13
308.15 K | 0.0147 ± 0.00044 | 1139.43 ± 2 | 1.5204 ± 0.0011 | 84.3 ± 9.3
313.15 K | 0.022 ± 0.00066 | 1136.7 ± 2 | 1.5194 ± 0.0011 | 50.2 ± 5.6
318.15 K | 0.0292 ± 0.00088 | 1133.97 ± 2 | 1.5182 ± 0.0011 | 29.4 ± 3.3
323.15 K | 0.0388 ± 0.0012 | 1131.22 ± 2 | 1.5171 ± 0.0011 | 19.9 ± 2.2
328.15 K | 0.0497 ± 0.0015 | 1128.46 ± 2 | 1.5158 ± 0.0011 | 14.3 ± 1.6
333.15 K | 0.0609 ± 0.0018 | 1125.7 ± 2 | 1.5148 ± 0.0011 | 10.4 ± 1.1
338.15 K | 0.0781 ± 0.0024 | 1122.93 ± 2 | 1.5137 ± 0.0011 | 7.2 ± 0.8
343.15 K | 0.0993 ± 0.003 | 1120.22 ± 2 | 1.5125 ± 0.0011 | 5.5 ± 0.6
348.15 K | 0.122 ± 0.0037 | 1117.53 ± 2 | – | 4.3 ± 0.5
353.15 K | 0.15 ± 0.0045 | 1114.83 ± 2 | – | 3.5 ± 0.4

C[N+](C)(C)CCO.NCCC(=O)[O-] [2-hydroxy-N,N,N-trimethylethanaminium β-alaninate]
Conditions | electrical conductivity, [1] [S/m] | mass density, [1] [kg/m3] | refractive index, [2] | viscosity, [1] [mPa·s]
293.15 K | – | – | 1.5322 ± 0.0011 | –
298.15 K | 0.00071 ± 2e-05 | 1120.29 ± 2 | 1.5313 ± 0.0011 | 5092.1 ± 710
303.15 K | 0.00143 ± 4e-05 | 1117.51 ± 2 | 1.5306 ± 0.0011 | 3022.2 ± 400
308.15 K | 0.00268 ± 8e-05 | 1114.55 ± 2 | 1.5294 ± 0.0011 | 1820.4 ± 230
313.15 K | 0.00494 ± 0.00015 | 1111.77 ± 2 | 1.5285 ± 0.0011 | 1146.2 ± 140
318.15 K | 0.00907 ± 0.00027 | 1108.98 ± 2 | 1.5277 ± 0.0011 | 723.2 ± 88
323.15 K | 0.0134 ± 0.0004 | 1106.2 ± 2 | 1.5266 ± 0.0011 | 470.7 ± 56
328.15 K | 0.0178 ± 0.00053 | 1103.43 ± 2 | 1.526 ± 0.0011 | 322.4 ± 37
333.15 K | 0.0227 ± 0.00068 | 1100.63 ± 2 | 1.5249 ± 0.0011 | 220.7 ± 25
338.15 K | 0.0295 ± 0.00089 | 1097.83 ± 2 | 1.5238 ± 0.0011 | 155.9 ± 18
343.15 K | 0.0379 ± 0.0011 | 1095.04 ± 2 | 1.5225 ± 0.0011 | 112 ± 12
348.15 K | 0.0496 ± 0.0015 | 1092.32 ± 2 | – | 79.3 ± 8.8
353.15 K | 0.0615 ± 0.0019 | 1089.6 ± 2 | – | 56.7 ± 6.3

C[N+](C)(C)CCO.N[C@@H](CO)C(=O)[O-] [2-hydroxy-N,N,N-trimethylethanaminium L-serinate]
Conditions | electrical conductivity, [1] [S/m] | mass density, [1] [kg/m3] | refractive index, [2] | viscosity, [1] [mPa·s]
293.15 K | – | – | 1.5447 ± 0.0011 | –
298.15 K | 0.00093 ± 3e-05 | 1191.51 ± 2 | 1.5429 ± 0.0011 | 11544 ± 1700
303.15 K | 0.00145 ± 4e-05 | 1188.65 ± 2 | 1.5416 ± 0.0011 | 6543.1 ± 930
308.15 K | 0.00229 ± 7e-05 | 1185.79 ± 2 | 1.5408 ± 0.0011 | 3793.3 ± 520
313.15 K | 0.00359 ± 0.00011 | 1182.9 ± 2 | 1.5397 ± 0.0011 | 2186.5 ± 290
318.15 K | 0.00553 ± 0.00017 | 1179.92 ± 2 | 1.5388 ± 0.0011 | 1306 ± 160
323.15 K | 0.00833 ± 0.00025 | 1176.87 ± 2 | 1.5382 ± 0.0011 | 811.5 ± 99
328.15 K | 0.0122 ± 0.00037 | 1173.97 ± 2 | 1.5366 ± 0.0011 | 522.9 ± 62
333.15 K | 0.0175 ± 0.00053 | 1171.2 ± 2 | 1.5349 ± 0.0011 | 346.6 ± 40
338.15 K | 0.0266 ± 0.0008 | 1168.38 ± 2 | 1.5341 ± 0.0011 | 237.7 ± 27
343.15 K | 0.037 ± 0.0011 | 1165.5 ± 2 | 1.5326 ± 0.0011 | 167.5 ± 19
348.15 K | 0.0495 ± 0.0015 | 1162.54 ± 2 | – | 120.1 ± 13
353.15 K | 0.0688 ± 0.0021 | 1159.37 ± 2 | – | 90.2 ± 10

Source: the NIST ThermoML archive (doi:10.1021/je301103d)
